We go through three compounds from patent publication US20220023325A1, “SPECIFIC TLR4 ANTAGONIST IN THE TREATMENT OF MULTIPLE MYELOMA” (Etablissement Français du Sang, priority 2016, published 2022).

Several values for one entry are separate records, joined by “and”; a condition that tells them apart may be missing. Identical values can stand only once.

The target of test [1] is T1, TLR4 (Homo sapiens, UniProt O00206+Q9Y6Y9).
T1 construct: the TLR4 molecule is overexpressed both at the transcriptional level (mRNA) and at the protein level in the MM MSCs; endogenous in cells; host or cells: primary mesenchymal stromal cells (MSCs) of multiple myeloma patients
Briefly: Secretion of soluble factors (IGF-1, IL6) by MM patient MSCs after TLR4 stimulation. The class given is cell-based. From the text: (§1) FIG. 6: Secretion of IL6 by MSCs from healthy donors or from patients with MM, stimulated or not with LPS.
FIG. 7: Secretion of IL6 by MSCs of healthy donors or from MM patients, whether stimulated or not with Hsp70.
(§2) The inventors also evaluated the effect of TLR4 stimulation on the soluble IGF-1 and IL6 factors involved in the survival and proliferation of myeloma cells.

Test [2] deals with T1, TLR4. Briefly: Adhesion molecule expression on MM patient MSCs after TLR4 stimulation. The test is classed as cell-based. From the text:
FIG. 3: Expression of different adhesion molecules involved in the interaction with MM plasma cells (CD49d, CD49e, CD54 and CD106) on the surface of MSCs of healthy subjects and patients with MM, stimulated or not with LPS. *p≤0.05**p≤0.01
FIG. 5: Expression of CD54 by MSCs from healthy donors or from patients with MM, whether stimulated or not with Hsp70. p*≤0.05
(§3) The inventors then studied the differential activation of TLR4 in the MSCs of healthy donors or MM patients. They analyzed the effect of stimulation by LPS, the TLR4 reference ligand widely described in the literature, on the expression of several adhesion molecules (CD49d/VLA-4, CD49e/VLA-5, CD54/ICAM-1 and CD106/VCAM-1) involved in the interaction between MSCs and malignant plasma cells. The level of expression (MFI: mean fluorescence intensity) of each molecule is shown in the histogram of FIG. 3.
In order to further investigate the role of TLR4 in the context of MM and to move closer to pathophysiology, the inventors stimulated MSCs with Hsp70, an endogenous ligand of TLR4 actively released in the MM microenvironment and secreted by the cell line of MM MOLP-6 (up to 200 ng/ml) (FIG. 4). In addition, this endogenous ligand has been described in the literature to have a chemoprotective role for MM malignant plasma cells (Nimmanapalli et al (2008) Br. Haematol 142: 551-561). […] Indeed Hsp-70 is a monomeric molecule and therefore induces a less important stimulation than LPS (multimeric). Nevertheless, once again, the MM MSCs respond better than the healthy MSCs.

Test [3] concerns MOLP-6 cells. Briefly: MOLP-6 myeloma cells cultured alone, treated with C34. The class given is cell-based, human. Conditions: MOLP-6 alone, C34 1 μM or 10 μM. As for the experimental part:
(§4) FIG. 9: Number of myeloma cells (MOLP-6)after culture of MOLP-6 alone untreated (NT) or treated with 1 μM or 10 μM of C34 (TLR4 antagonist), or in coculture with a stroma of MSCs from healthy or MM donors, untreated or treated with 1 μM or 10 μM C34.
(§5) To evaluate the role of TLR4 in the MSC/myeloma cell interaction, the inventors used a specific TLR4 antagonist, the C34 compound, marketed by Tocris, and a stroma-dependent myeloma cell line, the MOLP-6 line. Some studies have used stroma-independent myeloma cell lines such as MM1S or RPM18226. In this study, in order to approach the pathology and mimic real interactions between MSC and plasma cells, the inventors used a stroma-dependent cell line for its proliferation. Indeed, during MM (in the establishment and maintenance phases of the disease), myeloma cells strongly adhere to the MSCs of the stroma, which gives chemoresistance and survival signals favoring the evolution of MM.
(§6) Then they treated the healthy MSCs and MM with the C34 before and in co-culture with the MOLP-6. With the healthy stroma, the C34 antagonist (at 1 and 10 μM) has no effect on the growth support of MOLP-6, whereas with the stroma of MM, the TLR4 antagonist affects growth of MOLP-6 cells at the two doses used (33% decrease, FIG. 9).

Test [4] has as its system MOLP-6 cells. Briefly: MOLP-6 growth in coculture with stroma of MM patient MSCs. The test is classed as cell-based, human. As for the experimental part:
as §4, §5, §6
The inventors co-cultured MSCs from 4 healthy donors (H) or 5 patients suffering from MM (MYE) as well as stroma-dependent MOLP-6 plasma cells: • without treatment (NT) • in the presence of C34 alone at 1 μM (C34 1 μM), • in the presence of melphalan alone at 100 nM (Mel 100 nM), • in the presence of lenalidomide alone at 100 nM (Len 100 nM), • in the presence of a combination of C34 at 1 μM and melphalan at 100 nM (Mel 100 nM+C34 1 μM), or • in the presence of a combination of C34 at 1 μM and lenalidomide at 100 nM (Len 100 nM+C34 1 μM).
(§7) After 7 days of culture, they calculated the percent inhibition of plasmocyte growth (FIGS. 11 and 12).

The test system of test [5] is MOLP-6 cells. Briefly: MOLP-6 growth in coculture with stroma of healthy donor MSCs. The test is classed as cell-based, human. As for the experimental part:
as §4, §5
Then they treated the healthy MSCs and MM with the C34 before and in co-culture with the MOLP-6. With the healthy stroma, the C34 antagonist (at 1 and 10 μM) has no effect on the growth support of MOLP-6, whereas with the stroma of MM, the TLR4 antagonist affects growth of MOLP-6 cells at the two doses used (33% decrease, FIG. 9). […]
as §7

The target in test [6] is T1, TLR4. Briefly: Secretion of soluble factors (IGF-1, IL6) by healthy donor MSCs after TLR4 stimulation. The test is classed as cell-based.
From the text: as §1, §2

Test [7] addresses T1, TLR4. Briefly: Adhesion molecule expression on healthy donor MSCs after TLR4 stimulation. The test is classed as cell-based.
From the text: as §3, with “FIG. 3: Expression of different adhesion molecules involved in the interaction with MM plasma cells (CD49d, CD49e, CD54 and CD106) on the surface of MSCs of healthy subjects and patients with MM, stimulated or not with LPS. *p≤0.05**p≤0.01 FIG. 5: Expression of CD54 by MSCs from healthy donors or from patients with MM, whether stimulated or not with Hsp70. p*≤0.05 The inventors” for “The inventors”

Where [8] appears, read: MM MSCs, stimulation with Hsp70.

T1 sequence (O00206 24-839): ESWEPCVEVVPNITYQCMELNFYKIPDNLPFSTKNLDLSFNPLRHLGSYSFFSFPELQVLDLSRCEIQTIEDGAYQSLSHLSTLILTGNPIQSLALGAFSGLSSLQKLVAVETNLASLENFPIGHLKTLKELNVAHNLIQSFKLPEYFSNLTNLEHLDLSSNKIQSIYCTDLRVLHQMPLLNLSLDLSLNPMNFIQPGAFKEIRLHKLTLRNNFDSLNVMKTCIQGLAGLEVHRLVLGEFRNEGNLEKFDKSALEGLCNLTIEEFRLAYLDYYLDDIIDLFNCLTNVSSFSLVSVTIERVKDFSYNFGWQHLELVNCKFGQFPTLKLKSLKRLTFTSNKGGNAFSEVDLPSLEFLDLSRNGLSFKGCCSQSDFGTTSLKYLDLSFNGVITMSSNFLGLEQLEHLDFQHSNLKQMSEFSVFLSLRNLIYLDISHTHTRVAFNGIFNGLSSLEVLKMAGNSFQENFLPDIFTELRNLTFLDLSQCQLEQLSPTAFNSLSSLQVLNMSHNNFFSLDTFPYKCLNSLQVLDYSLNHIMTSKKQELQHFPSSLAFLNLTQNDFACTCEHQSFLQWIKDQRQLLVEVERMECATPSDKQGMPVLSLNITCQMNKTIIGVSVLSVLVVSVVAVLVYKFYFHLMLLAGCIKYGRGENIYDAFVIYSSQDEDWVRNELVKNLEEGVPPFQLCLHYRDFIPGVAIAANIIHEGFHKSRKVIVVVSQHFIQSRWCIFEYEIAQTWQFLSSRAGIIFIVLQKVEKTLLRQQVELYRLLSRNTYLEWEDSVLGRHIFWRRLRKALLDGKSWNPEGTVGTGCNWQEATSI
T1 sequence (Q9Y6Y9 17-160 limits assumed): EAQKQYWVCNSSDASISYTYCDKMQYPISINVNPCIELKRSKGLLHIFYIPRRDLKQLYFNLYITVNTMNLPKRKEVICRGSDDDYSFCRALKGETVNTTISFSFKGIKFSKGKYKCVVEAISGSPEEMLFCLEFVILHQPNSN

With “Hsp70: endogenous ligand of TLR4, chaperone heat shock protein 70”, the IL6 secretion result in the test with TLR4 [1] (setting [8]) is listed as “increases”. The CD54 expression entry in the test with TLR4 [2] (setting [8]) is reported as “significantly increased”.
With `CC(=O)N[C@H]1[C@@H](OC(C)C)O[C@H](COC(C)=O)[C@@H](OC(C)=O)[C@@H]1OC(C)=O` [C34], the “direct effect on MOLP-6 cells (number of myeloma cells)” value in the test on MOLP-6 cells [3] is reported as “did not directly affect”. For the same compound, in the test on MOLP-6 cells [4] (MM MSC coculture, C34 1 μM + lenalidomide 100 nM, 7 days), the “effect on inhibition of proliferation of MM plasmocytes in combination with lenalidomide” value is listed as “synergistic effect”. Also, the “effect on inhibition of proliferation of MM plasmocytes in combination with melphalan” value in the test on MOLP-6 cells [4] (MM MSC coculture, C34 1 μM + melphalan 100 nM, 7 days) was “synergistic effect”. Moreover, in the test on MOLP-6 cells [4] (stroma of MM, C34 at the two doses used (1 and 10 μM)), the “decrease of growth of MOLP-6 cells” value amounted to 33%. Further, the “effect on inhibition of plasmocyte growth in the presence of chemotherapeutic agents” value with MOLP-6 cells [5] (healthy MSC/MOLP-6 cocultures, C34 1 μM + melphalan or lenalidomide 100 nM, 7 days) is given as “no significant synergistic effect”. The “effect on the growth support of MOLP-6” value in the test with MOLP-6 cells [5] (healthy stroma, C34 at 1 and 10 μM) is listed as “no effect”.
Take lipopolysaccharide [LPS]: the IGF-1 secretion result is on record as “no effect” on TLR4 [1] (MM MSCs, LPS stimulation) and “no effect” on TLR4 [6] (healthy MSCs, LPS stimulation). For the same compound, the “secretion of IL6” value at TLR4 [1] (MSCs of MM after LPS stimulation (unstimulated 0.08)) stood at 0.7 pg/cell; on TLR4 [6] (healthy MSCs after LPS stimulation (unstimulated 0.02)), 0.1 pg/cell. For the same compound, the “expression of CD49e” value on TLR4 [2] (MM MSC, LPS stimulation) was “significantly increased”; on TLR4 [7] (healthy MSC, LPS stimulation), “significantly increased”. Also, the “expression of CD106” value is on record as “no effect” at TLR4 [2] (MM MSC, LPS stimulation) and “no effect” on TLR4 [7] (healthy MSC, LPS stimulation). The “expression of CD49d” value at TLR4 [2] (MM MSC, LPS stimulation) is given as “no effect”; on TLR4 [7] (healthy MSC, LPS stimulation), “no effect”. Also, the “CD54 MFI” value at TLR4 [2] (MSCs of MM after LPS stimulation (basal 4.3)) was 215.9 and 216; at TLR4 [7] (healthy MSCs after LPS stimulation (basal 9.6)), 148.7 and 149.
